Experiments:
CD19+CD20+ B cells = experiment: Anti-CD22 (TNT127):CpG conjugates on human PBMCs, CD40 on CD19+ B cells (Examples 19-20); format: cell-based; details: conjugated to antibody TNT127 (DAR1), compared to the 12070 conjugate
Protocol: Trima residuals were received from Vitalant and diluted 1:2 with Phosphate Buffered Saline (PBS, Gibco). Diluted blood was split into two tubes and underplayed with 15 mL FICOLL® PAQUE medium (GE Healthcare). Tubes were centrifuged for 30 minutes at 400×g. PBMCs were collected from the interface, resuspended and washed in FACS buffer (PBS with 0.5% Bovine Serum Albumin (Gibco)). After one wash, PBMCs were resuspended in Complete RPMI (RPMI+10% FBS). PBMCs were immediately plated onto a 96-well format (500K/well) in Complete RPMI. Five-fold serial dilutions were added to the cells from 100 nM to 6.4 pM conjugated antibody at 37° C. under 5% CO2 for 48 hours. Cells were pelleted by centrifugation for five minutes at 400×g and stained at 4° C. in Fixable Viability Dye eFluor 780 (Thermo Fisher Scientific) diluted 1:4000 in PBS. Cells were centrifuged and stained at 4° C. in FACS buffer for 30 minutes containing FcR Blocking Reagent (Miltenyi Biotec), anti-CD19, anti-CD20, anti-CD40, anti-HLADR and anti-CD80. Cells were centrifuged and washed twice in FACS buffer and fixed in 0.5% paraformaldehyde. Cells were analyzed on ATTUNE™ NxT Flow Cytometer (Thermo Fisher Scientific), with subsequent data analysis by FLOWJO™ 10.7 (Treestar). Dead cells were excluded by gating on the eFluor 780-negative population.
The activity of CD22 antibody-CpG conjugates DAR1 and DAR2 were compared for activity.

CD19 positive B cells = experiment: Free CpG activity on CD40 expression by CD19+ B cells in human PBMCs (Examples 16-17); format: cell-based; details: compared with 12070
Protocol: Trima residuals were received from Vitalant and diluted 1:2 with Phosphate Buffered Saline (PBS, Gibco). Diluted blood was split into two tubes and underplayed with 15 mL Ficoll-Paque (GE Healthcare). Tubes were centrifuged for 30 minutes at 400×g. PBMCs were collected from the interface, resuspended and washed in FACS buffer (PBS with 0.5% Bovine Serum Albumin (Gibco)). After one wash, PBMCs were resuspended in Complete RPMI (RPMI+10% FBS).
PBMCs were immediately plated onto a 96-well format (500K/well) in Complete RPMI. Five-fold serial dilutions were added to the cells from 1 uM to 64 pM of CpG polynucleotides at 37° C. under 5% CO2 for 48 hours. Cells were pelleted by centrifugation for five minutes at 400×g and stained at 4° C. in Fixable Viability Dye eFluor 780 (Thermo Fisher) diluted 1:4000 in PBS. Cells were centrifuged and stained at 4° C. in FACS buffer for 30 minutes containing FcR Blocking Reagent (Miltenyi Biotec), anti-CD19, anti-CD20, anti-CD40, anti-HLADR and anti-CD80. Cells were centrifuged and washed twice in FACS buffer and fixed in 0.5% paraformaldehyde. Cells were analyzed on ATTUNE™ NxT Flow Cytometer (Thermo Fisher Scientific), with subsequent data analysis by FLOWJO™ 10.7 (Treestar). […] B cells were identified as CD19+CD20+ cells and level of activation marker was assessed by median fluorescent intensity. […]

[1] = system: EMT6 mouse mammary carcinoma cells; experiment: EMT6 breast cancer model, intratumoral administration; format: in vivo, BALB/c mice; details: intratumorally 2 doses every 3 days at 24 uM
Protocol: 100 uL of suspended cells were subcutaneously implanted into the right flank of 6 week old female BALB/c mice (Charles River). Tumor size was measured and recorded twice a week with calipers starting 7 days post implantation until duration of the study, approximately 25 days later. Tumor volume was calculated using the following formula: (length×width×width)/2. Once tumors reached on average 180 mm^3, approximately 7 days post implantation, mice were randomized by tumor size and treatments were initiated.

B cells = experiment: B cell activation by anti-CD22 (RFB4):CpG conjugates in human PBMCs (Examples 2 and 4); format: cell-based; details: for B cell activation (CD19, CD40, CD69, CD86, HLADR expression): RFB4 conjugates, DAR1, 96 hours; for B cell activation as determined by CD80 expression: conjugate to anti-CD22 antibody (SEQ ID NO: 56 and 57), DAR1, compared with conjugate of CpG (SEQ ID NO: 3) and naked CpG
Protocol: (§1) PBMCs were immediately plated onto a 96-well format (500K/well) in Complete RPMI (RPMI+10% FBS). Five-fold serial dilutions were added to the cells from 100 nM to 6.4 pM of antibody and conjugated antibody and 1 uM to 64 pM of CpG polynucleotides at 37° C. under 5% CO2 for 48 to 96 hours. Cells were pelleted by centrifugation for five minutes at 400×g and stained at 4° C. in Fixable Viability Dye eFluor 780 (Thermo Fisher Scientific) diluted 1:4000 in PBS. Cells were centrifuged and stained at 4° C. in FACS buffer for 30 minutes containing FcR Blocking Reagent (Miltenyi Biotec), anti-CD19, anti-CD20, anti-CD40, anti-HLADR and anti-CD80 for B cell assays and anti-CD14, anti-CD3, anti-CD19, anti-CD14, anti-CD123, anti-CD11 c and anti-CD86 for pDC assays. Cells were centrifuged and washed twice in FACS buffer and fixed in 0.5% paraformaldehyde. CountBright™ Absolute Counting Beads (Thermo Fisher) were added to each well to count the number of cells. Cells were analyzed on ATTUNE™ NxT Flow Cytometer (Thermo Fisher Scientific), with subsequent data analysis by Flowjo 10.7 (Treestar). Dead cells were excluded by gating on the eFluor 780-negative population. Lineage specific cells were first excluded (CD19, CD3, CD14) prior to gating CD123^+CD11c^− cells to identify pDC and gating CD19^+, CD20^+ or CD19^+CD20^+ cells to identify B cells.
Trima residuals were received from Vitalant and diluted 1:4 with Phosphate Buffered Saline (PBS, Gibco). Diluted blood was split into two tubes and underplayed with 15 mL Ficoll-Paque (GE Healthcare). Tubes were centrifuged for 30 minutes at 400×g. PBMCs were collected from the interface and resuspended in FACS buffer (PBS with 0.5% Bovine Serum Albumin (Gibco)).
as §1, with “antiCD11” for “anti-CD11”, “COUNTBRIGHT™” for “CountBright™”, “Fisher Scientific)” for “Fisher)”
Various B-cell and pDC specific antibodies were conjugated with CpG 12070 (SEQ ID NO: 3), CpG (SEQ ID NOs: 9, 12, 20, 27 and 28), all with the DAR1 configuration, at their C-terminus heavy chain Q-tag ([…]) (SEQ ID NO: 49) via transglutaminase reaction. The conjugated antibodies were subsequently tested for their effects on proliferation and/or activation. […] As shown in FIGS. 5A-5D, the anti-CD22-CpG antibodies enhanced the activation of B cells as compared to naked CpG polynucleotide 12070 (SEQ ID NO: 3) and human IgG control antibody after 96 hours. As determined by CD19, CD40, CD69, CD86, and HLADR expression, only anti-CD22-CpG and CpG alone induced B cell activation. Direct delivery of CpG by a targeting antibody results in higher activation as compared to CpG alone.

Row | Substance | B cell activation as determined by CD80 expression (B cells) | further results
1 | 7-6: CpG oligonucleotide: "CpG 7-6 (SEQ ID NO:34)" (DNA UCGTCGTGTCGTTT; chemically modified, pattern not given here) |  | CD40 expression (CD19+CD20+ B cells): substantially better activity; CD40 expression in PBMC from three donors (D559, D804 and D643) (CD19 positive B cells): higher activities
2 | CpG-4253: "the free CpG (CpG-4253)"; apparently "4523 murine CpG oligonucleotide", "tucgtcgtgacgtt-c3" (SEQ ID NO:121) (DNA TUCGTCGTGACGTT; 3' C3 spacer, chemistry not fully specified; listed as Mus musculus) |  | anti-tumor potency [1]: showed anti-tumor potency
3 | SEQ ID NO: 9: "modified CpGs"; tested "as an antibody-CpG conjugate" "to anti-CD22 antibody (SEQ ID NO: 56 and SEQ ID NO: 57)" (DNA UCGTCGTGTCGTTT; modified CpG; (1)..(14) Linkages as shown in Table 2 of the specification; (1)..(14) Modified as shown in Table 2 of the specification) | increased B cell activation | B cell activation (CD19, CD40, CD69, CD86, HLADR expression) (B cells): enhanced activity
4 | SEQ ID NO: 12: "modified CpGs"; tested "as an antibody-CpG conjugate" "to anti-CD22 antibody (SEQ ID NO: 56 and SEQ ID NO: 57)" (DNA UCGTCGTGTCGTTT; modified CpG; (1)..(14) Linkages as shown in Table 2 of the specification; (1)..(14) Modified as shown in Table 2 of the specification) | increased B cell activation | 
5 | SEQ ID NO: 13: "modified CpGs"; tested "as an antibody-CpG conjugate" "to anti-CD22 antibody (SEQ ID NO: 56 and SEQ ID NO: 57)" (DNA UCGTCGTGTCGTTT; modified CpG; (1)..(14) Linkages as shown in Table 2 of the specification; (1)..(14) Modified as shown in Table 2 of the specification) | increased B cell activation | 
6 | SEQ ID NO: 15: "modified CpGs"; tested "as an antibody-CpG conjugate" "to anti-CD22 antibody (SEQ ID NO: 56 and SEQ ID NO: 57)" (DNA UCGTCGTGTCGTT; modified CpG; (1)..(13) Linkages as shown in Table 2 of the specification; (1)..(13) Modified as shown in Table 2 of the specification) | increased B cell activation | 
7 | SEQ ID NO: 20: "modified CpGs"; tested "as an antibody-CpG conjugate" "to anti-CD22 antibody (SEQ ID NO: 56 and SEQ ID NO: 57)" (DNA UCGTCGTGTCGTT; modified CpG; (1)..(13) Linkages as shown in Table 2 of the specification; (1)..(13) Modified as shown in Table 2 of the specification) | increased B cell activation | B cell activation (CD19, CD40, CD69, CD86, HLADR expression) (B cells): enhanced activity

Source: patent US11920136B2, “Transglutaminase-mediated conjugation” (Tallac Therapeutics, Inc., priority 2020, dated 2024)
